Where a SMILES comes first, the peptide text is derived from it. The star is where a group is joined. NHPhenethyl = c1ccc(CCN*)cc1; Cbz = O=C(OCc1ccccc1)*
target: T1, NS3 protease domain complexed to a modified form of the NS4A peptide (Pep4AK) (Hepatitis C virus genotype 1b, UniProt P26663); test: HCV NS3 protease domain/NS4A cofactor peptide assay (Assay B); type: biochemical; details: NS3 protease domain/NS4A cofactor peptide assay; read-out: Assay B (IC50 class)
T1 construct: NS3 protease domain (residues 1027–1206 of the HCV polyprotein)
T1 sequence (P26663 1027-1206, other chains not shown): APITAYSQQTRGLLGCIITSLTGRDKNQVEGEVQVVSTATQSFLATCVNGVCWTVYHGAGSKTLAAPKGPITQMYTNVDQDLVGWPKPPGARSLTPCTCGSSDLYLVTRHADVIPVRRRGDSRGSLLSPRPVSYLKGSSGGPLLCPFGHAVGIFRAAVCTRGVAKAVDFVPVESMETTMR

| SMILES | IC50 [µM] |
| --- | --- |
| CCOC(=O)C=Cc1cccc(CCNC(=O)C(CC(F)F)NC(=O)C(CC(C)C)NC(=O)c2ccccc2-c2ccccc2C(=O)O)c1 (centres unmarked) [Compound 719] | < 100 |
| CC(C)CC(NC(=O)c1ccccc1-c1ccccc1C(=O)O)C(=O)NC(CS)C(=O)NCCc1ccccc1Cl (centres unmarked) [Compound 716] | < 100 |

same assay, conditions: Table 1; NS3 protease domain/Pep4AK, 4AB peptide substrate; read-out: Assay B

| SMILES | IC50 [µM] |
| --- | --- |
| CC(C)COC(=O)NC(CCC(=O)O)C(=O)NC(CC(C)C)C(=O)NC(CS)C(=O)NCCc1ccc2ccccc2c1 (centres unmarked) [Compound 192] | < 100 |
| CC(C)COC(=O)NC(CCC(=O)O)C(=O)NC(CC(C)C)C(=O)NC(CS)C(=O)NCCc1ccc(Br)cc1 (centres unmarked) [Compound 139] | < 100 |
| COC(=O)c1ccccc1CCNC(=O)C(CS)NC(=O)C(CC(C)C)NC(=O)C(CCC(=O)O)NC(=O)OCC(C)C (centres unmarked) [Compound 122] | < 100 |
| CC(C)C[C@H](NC(=O)[C@H](CCC(=O)O)NC(=O)OCc1ccccc1)C(=O)N[C@@H](CS)C(=O)NCCc1ccccc1 [Compound 101] (Cbz-Glu-Leu-Cys-NHPhenethyl) | < 100 |
| CC(C)CC(NC(=O)C(NC(=O)OC1CCS(=O)(=O)CC1)C(C)C)C(=O)NC(CS)C(=O)NCCc1ccc(C(=O)O)cc1Cl (centres unmarked) [Compound 182] | < 100 |
| Cc1ccc(CCNC(=O)C(CS)NC(=O)C(CC(C)C)NC(=O)C(CCC(=O)O)NC(=O)OCC(C)C)cc1 (centres unmarked) [Compound 140] | < 100 |
| CC(C)COC(=O)NC(C(=O)NC(CC(C)C)C(=O)NC(CS)C(=O)NCCc1ccc(C(=O)O)cc1)C(C)C (centres unmarked) [Compound 152] | < 10 |
| COc1ccc(CCNC(=O)C(CS)NC(=O)C(CC(C)C)NC(=O)C(CCC(=O)O)NC(=O)OCC(C)C)cc1 (centres unmarked) [Compound 141] | < 100 |
| COC(=O)c1ccc(CCNC(=O)C(CS)NC(=O)C(CC(C)C)NC(=O)C(CCC(=O)O)NC(=O)OCC(C)C)cc1 (centres unmarked) [Compound 150] | < 100 |
| CC(C)COC(=O)N[C@@H](CCC(=O)O)C(=O)N[C@@H](CC(C)C)C(=O)N[C@@H](CS)C(=O)NCCc1ccc(Cl)cc1Cl [Compound 165] | < 10 |
| CC(C)COC(=O)NC(CCC(=O)O)C(=O)NC(CC(C)C)C(=O)NC(CS)C(=O)NCCc1cccnc1 (centres unmarked) [Compound 193] | < 100 |
| CC(C)COC(=O)NC(CCC(=O)O)C(=O)NC(CC(C)C)C(=O)NC(CS)C(=O)NCCc1cccc(Cl)c1 (centres unmarked) [Compound 127] | < 100 |
| CC(C)CC(NC(=O)C(CCC(=O)O)NC(=O)OC(C)(C)C)C(=O)NC(CC(F)F)C(=O)NCCc1ccccc1 (centres unmarked) [Compound 105] | < 100 |
| CC(C)COC(=O)NC(CCC(=O)O)C(=O)NC(CC(C)C)C(=O)NC(CS)C(=O)NCCc1ccccc1F (centres unmarked) [Compound 112] | < 100 |
| CC(=O)NS(=O)(=O)c1ccc(CCNC(=O)C(CS)NC(=O)C(CC(C)C)NC(=O)C(CCC(=O)O)NC(=O)OCC(C)C)cc1 (centres unmarked) [Compound 160] | < 10 |
| CC(C)COC(=O)NC(CCC(=O)O)C(=O)NC(CC(C)C)C(=O)NC(CS)C(=O)NCCc1ccccc1 (centres unmarked) [Compound 104] | < 100 |
| COC(=O)CCc1ccc(CCNC(=O)C(CS)NC(=O)C(CC(C)C)NC(=O)C(CCC(=O)O)NC(=O)OCC(C)C)cc1 (centres unmarked) [Compound 155] | < 100 |
| CC(C)COC(=O)NC(CCC(=O)O)C(=O)NC(CC(C)C)C(=O)NC(CS)C(=O)NCCc1ccc(C(=O)O)cc1F (centres unmarked) [Compound 186] | < 1 |
| CC(C)COC(=O)NC(CCC(=O)O)C(=O)NC(CC(C)C)C(=O)NC(CS)C(=O)NCCc1ccccc1Br (centres unmarked) [Compound 117] | < 100 |

Further lines, results first:

| IC50 [µM] | SMILES |
| --- | --- |
| < 10 | CC(C)COC(=O)NC(CCC(=O)O)C(=O)NC(CC(C)C)C(=O)NC(CS)C(=O)NCCc1ccc(S(=O)(=O)NC(=O)C(C)C)cc1 (centres unmarked) [Compound 161] |
| < 100 | CC(C)COC(=O)NC(CCC(=O)O)C(=O)NC(CC(C)C)C(=O)NC(CS)C(=O)NCCc1cccc(-c2ccccc2)c1 (centres unmarked) [Compound 136] |
| < 100 | CC(C)COC(=O)NC(CCC(=O)O)C(=O)NC(CC(C)C)C(=O)NC(CS)C(=O)NCCc1ccccc1OCc1ccccc1 (centres unmarked) [Compound 124] |
| < 100 | CC(C)COC(=O)N[C@@H](CCC(=O)O)C(=O)N[C@@H](CC(C)C)C(=O)N[C@@H](CS)C(=O)NCC(O)c1ccccc1 (mixture of isomers) [Compound 106] |
| < 100 | COC(=O)c1ccc(CCNC(=O)C(CS)NC(=O)C(CC(C)C)NC(=O)C(CCC(=O)O)NC(=O)OCC(C)C)c(F)c1 (centres unmarked) [Compound 185] |
| < 100 | COc1ccc(CCNC(=O)C(CS)NC(=O)C(CC(C)C)NC(=O)C(CCC(=O)O)NC(=O)OC(C)(C)C)cc1 (centres unmarked) [Compound 142] |
| < 100 | CC(C)COC(=O)N[C@@H](CCC(=O)O)C(=O)N[C@@H](CC(C)C)C(=O)N[C@@H](CS)C(=O)NCC(C)c1ccccc1 (mixture of isomers) [Compound 107] |

same assay, conditions: Table 2; NS3 protease domain/Pep4AK; read-out: Assay B

| SMILES | IC50 [µM] |
| --- | --- |
| COc1ccc(CCNC(=O)[C@H](CS)NC(=O)[C@H](CC(C)C)NC(=O)[C@H](CCC(=O)O)NC(=O)C(C)(C)CCC(=O)O)cc1 [Compound 243] | < 100 |
| C=CCNC(=O)N[C@@H](CCC(=O)O)C(=O)N[C@@H](CC(C)C)C(=O)N[C@@H](CS)C(=O)NCCc1ccccc1Cl [Compound 246] | < 100 |
| CC(C)C[C@H](NC(=O)[C@H](CCC(=O)O)NC(=O)Cc1ccc(CC(=O)O)cc1)C(=O)N[C@@H](CS)C(=O)NCCc1ccc(Cl)cc1Cl [Compound 227] | < 100 |
| COc1ccc(C(=O)N[C@@H](CCC(=O)O)C(=O)N[C@@H](CC(C)C)C(=O)N[C@@H](CS)C(=O)NCCc2ccccc2Cl)cc1OC [Compound 205] | < 100 |
| CC(C)C[C@H](NC(=O)[C@H](CCC(=O)O)NC(=O)C1CCCCC1)C(=O)N[C@@H](CS)C(=O)NCCc1ccccc1Cl [Compound 230] | < 100 |
| CC(C)C[C@H](NC(=O)[C@H](CCC(=O)O)NC(=O)Cc1ccsc1)C(=O)N[C@@H](CS)C(=O)NCCc1ccccc1Cl [Compound 222] | < 100 |
| CC(C)C[C@H](NC(=O)[C@H](CCC(=O)O)NC(=O)CCc1ccccc1)C(=O)N[C@@H](CS)C(=O)NCCc1ccc(Cl)cc1Cl [Compound 217] | < 100 |

The remaining lines, values ahead:

| IC50 [µM] | SMILES |
| --- | --- |
| < 10 | CC(C)C[C@H](NC(=O)[C@H](CCC(=O)O)NC(=O)[C@@H](O)c1ccccc1)C(=O)N[C@@H](CS)C(=O)NCCc1ccccc1Cl [Compound 221] |
| < 100 | CC(C)C[C@H](NC(=O)[C@H](CCC(=O)O)NC(=O)C(=O)c1cccs1)C(=O)N[C@@H](CS)C(=O)NCCc1ccccc1Cl [Compound 224] |
| < 100 | CC(C)C[C@H](NC(=O)[C@H](CCC(=O)O)NS(=O)(=O)c1ccccc1)C(=O)N[C@@H](CS)C(=O)NCCc1ccccc1Cl [Compound 249] |
| < 100 | CC(C)C[C@H](NC(=O)[C@H](CCC(=O)O)NC(=O)CCCC(=O)O)C(=O)N[C@@H](CS)C(=O)NCCc1ccccc1Cl [Compound 244] |
| < 100 | Cc1ccc(S(=O)(=O)N[C@@H](CCC(=O)O)C(=O)N[C@@H](CC(C)C)C(=O)N[C@@H](CS)C(=O)NCCc2ccccc2Cl)cc1 [Compound 251] |
| < 100 | Cc1nn(Cc2cccc(C(=O)N[C@@H](CCC(=O)O)C(=O)N[C@@H](CC(C)C)C(=O)N[C@@H](CS)C(=O)NCCc3ccccc3Cl)c2)c(C)c1Br [Compound 210] |

same assay, conditions: Table 4; NS3 protease domain/Pep4AK; read-out: Assay B

| SMILES | IC50 [µM] |
| --- | --- |
| CC(C)COC(=O)N[C@@H](CCC(=O)O)C(=O)N1c2ccccc2C[C@H]1C(=O)N[C@@H](CC(F)F)C(=O)NCCc1ccc(C(=O)O)cc1Cl [Compound 421] | < 100 |
| CC(C)COC(=O)N[C@@H](CCC(=O)O)C(=O)N[C@@H](CC1CC1)C(=O)N[C@@H](CS)C(=O)NCCc1ccccc1Cl [Compound 408] | < 100 |
| CC(C)COC(=O)NC(CCC(=O)O)C(=O)N1CCC1C(=O)NC(CS)C(=O)NCCc1ccccc1Cl (centres unmarked) [Compound 418] | < 100 |
| CC(C)COC(=O)N[C@@H](CCC(=O)O)C(=O)N[C@@H](CCC(=O)OCc1ccccc1)C(=O)N[C@@H](CS)C(=O)NCCc1ccccc1Cl [Compound 413] | < 100 |
| CC(C)COC(=O)N[C@@H](CCC(=O)O)C(=O)N(C)[C@@H](CC(C)C)C(=O)N[C@@H](CS)C(=O)NCCc1ccccc1Cl [Compound 416] | < 100 |

Further lines, results first:

| IC50 [µM] | SMILES |
| --- | --- |
| < 100 | CC(C)COC(=O)N[C@@H](CCC(=O)O)C(=O)N[C@@H](CCc1ccccc1)C(=O)N[C@@H](CS)C(=O)NCCc1ccccc1Cl [Compound 414] |
| < 10 | CC(C)COC(=O)N[C@@H](CCC(=O)O)C(=O)N[C@@H](CC1CCCCC1)C(=O)N[C@@H](CS)C(=O)NCCc1ccc(C(=O)O)cc1 [Compound 409] |
| < 10 | CC(C)COC(=O)N[C@@H](CCC(=O)O)C(=O)N1C2CCCCC2C[C@H]1C(=O)N[C@@H](CS)C(=O)NCCc1ccccc1Cl (some centres unmarked) [Compound 420] |
| < 100 | CC(C)COC(=O)N[C@@H](CCC(=O)O)C(=O)NC(CC(F)(F)F)C(=O)N[C@@H](CS)C(=O)NCCc1ccc(C(=O)O)cc1 (mixture of isomers) [Compound 403] |

Reference: patent US7119073B2, “Peptides and their use as inhibitors of hepatitis C virus ns3 protease” (Istituto Di Ricerche Di Biologia Molecolare P. Angeletti SpA, priority 2001, dated 2006)
